Data published in PubChem BioAssay AID1918942 (Molecular Pharmacology Branch, DTP, NCI, 2023).

System: 743489-274-T-PDC complex spheroid viability
Assay: Anticancer human tumor 743489-274-T-PDC patient-derived renal cell carcinoma cell line growth inhibition
Conditions: for IC50: curve of first compound; for viability, T/C: stronger effect = lower value
Outline: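 Multicellular complex spheroids of tumor cells with human endothelial cells (HUVEC) and mesenchymal stem cells; the LSD1 inhibitor iadademstat was combined with standard-of-care or investigational agents. Top concentration at or near clinical Cmax, half-log dilutions; final DMSO ≤0.25%.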

[1] = second compound 0.1 µM, first compound 0.000949 µM
[2] = second compound 0.1 µM, first compound 0.003 µM
[3] = second compound 0.1 µM, first compound 0.00949 µM
[4] = second compound 0.1 µM, first compound 0.03 µM
[5] = second compound 0.1 µM, first compound 0.0949 µM
[6] = second compound 0.1 µM, first compound 0.3 µM
[7] = second compound 0.316 µM, first compound 0.000949 µM
[8] = second compound 0.316 µM, first compound 0.003 µM
[9] = second compound 0.316 µM, first compound 0.00949 µM
[10] = second compound 0.316 µM, first compound 0.03 µM
[11] = second compound 0.316 µM, first compound 0.0949 µM
[12] = second compound 0.316 µM, first compound 0.3 µM
[13] = second compound 1 µM, first compound 0.000949 µM
[14] = second compound 1 µM, first compound 0.003 µM
[15] = second compound 1 µM, first compound 0.00949 µM
[16] = second compound 1 µM, first compound 0.03 µM
[17] = second compound 1 µM, first compound 0.0949 µM
[18] = second compound 1 µM, first compound 0.3 µM
[19] = second compound 3.16 µM, first compound 0.000949 µM
[20] = second compound 3.16 µM, first compound 0.003 µM
[21] = second compound 3.16 µM, first compound 0.00949 µM
[22] = second compound 3.16 µM, first compound 0.03 µM
[23] = second compound 3.16 µM, first compound 0.0949 µM
[24] = second compound 3.16 µM, first compound 0.3 µM
[25] = second compound 10 µM, first compound 0.000949 µM
[26] = second compound 10 µM, first compound 0.003 µM
[27] = second compound 10 µM, first compound 0.00949 µM
[28] = second compound 10 µM, first compound 0.03 µM
[29] = second compound 10 µM, first compound 0.0949 µM
[30] = second compound 10 µM, first compound 0.3 µM
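Note: spheroids exposed to compounds for 7 days before readout.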
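Throughout, for viability, T/C: 100% = DMSO vehicle control wells.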

Compound `CCc1c2c(nc3ccc(O)cc13)-c1cc3c(c(=O)n1C2)COC(=O)[C@]3(O)CC` + NC1CC1c1ccc(-c2cccc(O)c2)cc1 has an IC50 (second compound 0.1 µM) of 0.00488 µM, an IC50 (second compound 0.316 µM) of 0.0024 µM and an IC50 (second compound 1 µM) of 0.00271 µM. For the same compound, the IC50 (second compound 3.16 µM) was 0.00226 µM, the IC50 (second compound 10 µM) was 0.00352 µM and the viability, T/C [1] was 62.5%. It also gave a viability, T/C [2] of 52.5%, a viability, T/C [3] of 47.3% and a viability, T/C [4] of 33.7%. For the same compound, the viability, T/C [5] was 36.4%, the viability, T/C [6] was 33.5% and the viability, T/C [7] was 54.3%. It also gave a viability, T/C [8] of 51.7%, a viability, T/C [9] of 45.5% and a viability, T/C [10] of 35%. The viability, T/C [11] was 36.7%, the viability, T/C [12] was 40.2% and the viability, T/C [13] was 60.5%. For the same compound, the viability, T/C [14] was 51.9%, the viability, T/C [15] was 41.3% and the viability, T/C [16] was 39%. It also gave a viability, T/C [17] of 43.9%, a viability, T/C [18] of 42.7% and a viability, T/C [19] of 57%. For the same compound, the viability, T/C [20] was 48.7%, the viability, T/C [21] was 42.3% and the viability, T/C [22] was 33.5%. For the same compound, the viability, T/C [23] was 36.7%, the viability, T/C [24] was 34.5% and the viability, T/C [25] was 58.7%. For the same compound, the viability, T/C [26] was 50.8%, the viability, T/C [27] was 42.5% and the viability, T/C [28] was 35.3%. For the same compound, the viability, T/C [29] was 32% and the viability, T/C [30] was 38.8%.

Work on `Nc1ccccc1NC(=O)c1ccc(CNC(=O)OCc2cccnc2)cc1` + NC1CC1c1ccc(-c2cccc(O)c2)cc1 yielded an IC50 (second compound 0.1 µM) of 0.678 µM, an IC50 (second compound 0.316 µM) of 0.773 µM and an IC50 (second compound 1 µM) of 0.642 µM. For the same compound, the IC50 (second compound 3.16 µM) was 1.01 µM, the IC50 (second compound 10 µM) was 1.32 µM and the viability, T/C [3] was 93.2%. It also gave a viability, T/C [4] of 88.5%, a viability, T/C [5] of 87.5% and a viability, T/C [6] of 62.6%. It also gave a viability, T/C (second compound 0.1 µM, first compound 0.949 µM) of 45.8%, a viability, T/C (second compound 0.1 µM, first compound 3 µM) of 29.2% and a viability, T/C [9] of 95.7%. For the same compound, the viability, T/C [10] was 86.8%, the viability, T/C [11] was 84.5% and the viability, T/C [12] was 65.8%. It also gave a viability, T/C (second compound 0.316 µM, first compound 0.949 µM) of 45.5%, a viability, T/C (second compound 0.316 µM, first compound 3 µM) of 40.3% and a viability, T/C [15] of 98.6%. The viability, T/C [16] was 87.5%, the viability, T/C [17] was 83.4% and the viability, T/C [18] was 62.3%. The viability, T/C (second compound 1 µM, first compound 0.949 µM) was 43.2%, the viability, T/C (second compound 1 µM, first compound 3 µM) was 24.6% and the viability, T/C [21] was 92.8%. The viability, T/C [22] was 84.5%, the viability, T/C [23] was 81.6% and the viability, T/C [24] was 72.5%. The viability, T/C (second compound 3.16 µM, first compound 0.949 µM) was 49%, the viability, T/C (second compound 3.16 µM, first compound 3 µM) was 36.5% and the viability, T/C [27] was 95.5%. It also gave a viability, T/C [28] of 87.5%, a viability, T/C [29] of 77.9% and a viability, T/C [30] of 70.1%. For the same compound, the viability, T/C (second compound 10 µM, first compound 0.949 µM) was 58.4% and the viability, T/C (second compound 10 µM, first compound 3 µM) was 35.4%.

In the case of `Nc1ccn(C2OC(CO)C(O)C2(F)F)c(=O)n1` (stereo not given) + NC1CC1c1ccc(-c2cccc(O)c2)cc1, the IC50 (second compound 0.1 µM) is reported as greater than 0.3 µM, the IC50 (second compound 0.316 µM) is reported as 0.0465 µM and the IC50 (second compound 1 µM) is reported as 0.153 µM. For the same compound, the IC50 (second compound 3.16 µM) was 0.0255 µM, the IC50 (second compound 10 µM) was 0.11 µM and the viability, T/C [1] was 62.5%. The viability, T/C [2] was 58.5%, the viability, T/C [3] was 95.2% and the viability, T/C [4] was 58%. For the same compound, the viability, T/C [5] was 63.7%, the viability, T/C [6] was 48.5% and the viability, T/C [7] was 67.2%. For the same compound, the viability, T/C [8] was 56.3%, the viability, T/C [9] was 99.8% and the viability, T/C [10] was 51.4%. The viability, T/C [11] was 51.2%, the viability, T/C [12] was 44.2% and the viability, T/C [13] was 57.1%. It also gave a viability, T/C [14] of 51.7%, a viability, T/C [15] of 87% and a viability, T/C [16] of 53.9%. The viability, T/C [17] was 46.5%, the viability, T/C [18] was 47.1% and the viability, T/C [19] was 58.4%. The viability, T/C [20] was 62.2%, the viability, T/C [21] was 97.8% and the viability, T/C [22] was 46.3%. The viability, T/C [23] was 44%, the viability, T/C [24] was 48.4% and the viability, T/C [25] was 64.9%. It also gave a viability, T/C [26] of 51.4%, a viability, T/C [27] of 87.2% and a viability, T/C [28] of 47.6%. The viability, T/C [29] was 46.2% and the viability, T/C [30] was 44.9%.

Compound `O=C(c1cc(Cc2n[nH]c(=O)c3ccccc23)ccc1F)N1CCN(C(=O)C2CC2)CC1` + NC1CC1c1ccc(-c2cccc(O)c2)cc1 has an IC50 (second compound 0.1 µM) greater than 10 µM, an IC50 (second compound 0.316 µM) greater than 10 µM and an IC50 (second compound 1 µM) greater than 10 µM. The IC50 (second compound 3.16 µM) was greater than 10 µM, the IC50 (second compound 10 µM) was greater than 10 µM and the viability, T/C (second compound 0.1 µM, first compound 0.0316 µM) was 112%. It also gave a viability, T/C (second compound 0.1 µM, first compound 0.1 µM) of 115%, a viability, T/C (second compound 0.1 µM, first compound 0.316 µM) of 106% and a viability, T/C (second compound 0.1 µM, first compound 1 µM) of 113%. It also gave a viability, T/C (second compound 0.1 µM, first compound 3.16 µM) of 95.7%, a viability, T/C (second compound 0.1 µM, first compound 10 µM) of 92.5% and a viability, T/C (second compound 0.316 µM, first compound 0.0316 µM) of 105%. The viability, T/C (second compound 0.316 µM, first compound 0.1 µM) was 110%, the viability, T/C (second compound 0.316 µM, first compound 0.316 µM) was 132% and the viability, T/C (second compound 0.316 µM, first compound 1 µM) was 97.4%. It also gave a viability, T/C (second compound 0.316 µM, first compound 3.16 µM) of 107%, a viability, T/C (second compound 0.316 µM, first compound 10 µM) of 115% and a viability, T/C (second compound 1 µM, first compound 0.0316 µM) of 117%. It also gave a viability, T/C (second compound 1 µM, first compound 0.1 µM) of 104%, a viability, T/C (second compound 1 µM, first compound 0.316 µM) of 114% and a viability, T/C (second compound 1 µM, first compound 1 µM) of 93.8%. It also gave a viability, T/C (second compound 1 µM, first compound 3.16 µM) of 93.3%, a viability, T/C (second compound 1 µM, first compound 10 µM) of 94.7% and a viability, T/C (second compound 3.16 µM, first compound 0.0316 µM) of 98.1%. It also gave a viability, T/C (second compound 3.16 µM, first compound 0.1 µM) of 103%, a viability, T/C (second compound 3.16 µM, first compound 0.316 µM) of 117% and a viability, T/C (second compound 3.16 µM, first compound 1 µM) of 106%. The viability, T/C (second compound 3.16 µM, first compound 3.16 µM) was 100%, the viability, T/C (second compound 3.16 µM, first compound 10 µM) was 99.3% and the viability, T/C (second compound 10 µM, first compound 0.0316 µM) was 118%. The viability, T/C (second compound 10 µM, first compound 0.1 µM) was 121%, the viability, T/C (second compound 10 µM, first compound 0.316 µM) was 120% and the viability, T/C (second compound 10 µM, first compound 1 µM) was 120%. For the same compound, the viability, T/C (second compound 10 µM, first compound 3.16 µM) was 95.8% and the viability, T/C (second compound 10 µM, first compound 10 µM) was 94.2%.
